≈ marks a conversion by molar mass, not a printed value. Read-outs that look alike come from different tables or passages of the source. Marks after values point to notes of the source that are not given here. Where no end group is shown, it is not given here.

Series [1] relates to E. coli ML-35p. The experiment in a line: microbe, parasite or virus in culture. As to conditions: median of 3–6 experiments, value in square brackets = twice the maximal tested concentration, read-out: MIC. In kind it is cell-based, Escherichia coli.
Series [2] deals with E. coli ML-35p. Nature of the series: Bacterial membrane permeabilization assay, inner membrane (ONPG). In kind it is cell-based, Escherichia coli. The note with it: ONPG marker; for effect on cytoplasmic membrane permeability, substance alone (in words): ¼ MIC. The text has this:
The method is based on the certain features of the specifically designed E. coli ML-35p bacterial strain. As its parental strain E. coli ML-35, this bacterium constitutively expresses cytoplasmic β-galactosidase, but is unable to transport β-galactoside containing substrates through the inner membrane in normal circumstances due to the lack of lactose permease. […] If the cytoplasmic membrane of the bacterium is damaged, the chromogenic marker o-nitrophenyl-β-D-galactoside (ONPG) penetrates into the cell and, when digested by bacterial β-galactosidase, produces a colored product o-nitrophenol. The accumulation of the latter can be spectrophotometrically detected at a wavelength of 420 nm.
Escherichia coli ML-35p was cultivated in the sterile 3% Trypticase soy broth (TSB) for 18 h at 37°C, then washed three times with 10 mM sodium phosphate buffer, pH 7.4 (10 min centrifugation at 600 g and 4°C), diluted up to the OD of 0.4 at 620 nm (1 × 10^8 CFU/ml concentration), and used immediately or kept on ice until the start of the test. […] Controls contained equivalent volume of acidified water instead of antimicrobial agent(s). The assay was started by adding the bacteria and was run at 37°C, with periodical shaking. Optical density (OD) measurement at 420 nm was performed every minute for 1–2 h using SpectraMax 250 Microplate Spectrophotometer (Molecular Devices, USA) and its SoftMax PRO software.
(A) Permeability of the inner membrane for a chromogenic marker o-nitrophenyl-β-D-galactoside (ONPG). ¼ of minimal inhibitory concentrations (MICs) of antimicrobial peptides (AMPs) and antibiotics were used when alone, and ¼ MIC of AMP + ¼ MIC of antibiotic when in combination. Curves illustrate ONPG degradation by the cytoplasmic β-galactosidase of bacteria, when the membranes are damaged by test substances. Curves slope and the time of their rising to the plateau correspond to the extent of this damage. […] Nitrocefin is a substrate for the periplasmic β-lactamase of the bacteria. RIF, rifampicin; PMB, polymyxin B; GEN, gentamicin; OFL, ofloxacin; OX, oxacillin.

The test system of series [3] is S. aureus 1399/17. Nature of the series: Checkerboard titration (FICI). In kind it is cell-based, Staphylococcus aureus. As for the experimental part:
(§1) The combined antimicrobial action of AMPs and other antimicrobial compounds was assessed using checkerboard titration approach under the conditions similar to that of the microdilution assay. According to checkerboard titration template, one component (A) of the combination was diluted along the rows of the plate, while the other (B) was diluted down the columns, thereby creating the variety of mixtures with different concentrations of tested compounds. 2.5 μl of corresponding solutions of the components A and B were added into each well of the plate. Into the first column and the last row the same amount of 10 mM sodium phosphate buffer, pH 7.4, containing 0.1% of BSA was introduced instead of the second component. Thus, all wells contained 5 μl of antimicrobial compounds solutions (solo or in combination). The same volume of bacterial suspension, prepared as described for microdilution assay, was added into each well. The results were recorded after the overnight incubation, visually indicating the presence or absence of the microbial growth in the corresponding wells. Based on the obtained data the isobolograms of combined action were plotted and/or Fractional Inhibitory Concentration Indices (FICI) were calculated. […] Depending on the minimal value of the FICI the combined effect of the combination was classified as antagonism (FICI > 2), independent action (1 < FICI ≤ 2), additivity (0.5 < FICI ≤ 1) or synergy (FICI ≤ 0.5), as is recommended in the literature and due to some drawbacks of the serial dilution method (Hsieh et al., [1993]; Orhan et al., [2005]; Fehri et al., [2007]). FICIs were assessed in 3–6 independent experiments and median values were used to define the nature of interaction.

In series [4] the test system is S. aureus 1399/17. The experiment in a line: microbe, parasite or virus in culture. In kind it is cell-based. The note with it: Staphylococcus aureus; S. aureus 1399/17, drug-resistant clinical isolate; read-out: MIC. The protocol:
(§2) Prior to the “checkerboard” synergy test the minimal inhibitory concentrations (MIC) of individual substances were determined using broth microdilution assay. Testing was performed in 60-well polystyrene Terasaki microplates with V-shaped bottom generally according to the guidelines of the European Committee for Antimicrobial Susceptibility Testing with subtle modifications designed for AMP testing (Tossi et al., [1997]; Wiegand et al., [2008]). Cultivation of bacteria was carried out in 2.1% Müller-Hinton broth at 37°C with shaking. Two-fold serial dilutions of peptides, antibiotics and other antimicrobials were made with 10 mM sodium phosphate buffer, pH 7.4, containing 0.1% of BSA. The plates were preliminary incubated with 0.1% BSA for 1 h at 37°C to reduce a non-specific binding of peptides to the plates. After that BSA was removed, and serial dilutions were added into the plate wells in triplicates followed by the same volume of the suspension of bacterial cells in logarithmic phase of growth in concentration of 1 × 10^6 CFU/ml. After the 18 h overnight incubation at 37°C, the MIC value for each compound was determined as its lowest concentration completely inhibiting the visible growth of bacteria. The final results were calculated as median values based on 3–6 independent experiments.

For series [5], the system named is A. baumannii 7226/16. Nature of the series: microbe, parasite or virus in culture. As to conditions: Acinetobacter baumannii; A. baumannii 7226/16, drug-resistant clinical isolate. In kind it is cell-based. As for the experimental part: as §2
Series [6] deals with K. pneumoniae ESBL 344/17. The experiment in a line: microbe, parasite or virus in culture. In kind it is cell-based. The note with it: Klebsiella pneumoniae, ESBL344/17; K. pneumoniae ESBL 344/17, drug-resistant clinical isolate. As for the experimental part:
as §2

The test system of series [7] is P. aeruginosa MDR 522/17. Nature of the series: microbe, parasite or virus in culture. The note with it: Pseudomonas aeruginosa, MDR522/17; P. aeruginosa MDR 522/17, drug-resistant clinical isolate. In kind it is cell-based. The protocol: as §2
Series [8] has as its system E. coli ESBL 521/17. Nature of the series: microbe, parasite or virus in culture. In kind it is cell-based. The note with it: Escherichia coli, ESBL521/17; E. coli ESBL 521/17, drug-resistant clinical isolate; square brackets = twice the maximal tested concentration. The protocol:
as §2

Series [9] concerns P. aeruginosa MDR 522/17. The experiment in a line: Checkerboard titration (FICI). In kind it is cell-based, Pseudomonas aeruginosa. The protocol:
as §1

Series [10] concerns A. baumannii 7226/16. The experiment in a line: Checkerboard titration (FICI). In kind it is cell-based, Acinetobacter baumannii. As for the experimental part: as §1
Series [11] has as its system E. coli ESBL 521/17. The experiment in a line: Checkerboard titration (FICI). In kind it is cell-based, Escherichia coli. The protocol: as §1
Series [12] deals with K. pneumoniae ESBL 344/17. Nature of the series: Checkerboard titration (FICI). In kind it is cell-based, Klebsiella pneumoniae. The protocol:
as §1

The mark [13] stands for this setting: antibiotic in combination with ChBac3.4.
Where [14] appears, read: antibiotic in combination with PG-1.

On to `CNC(C)C1CCC(N)C(OC2C(N)CC(N)C(OC3OCC(C)(O)C(NC)C3O)C2O)O1` (stereo not shown) [Gentamicin], for which, in series [1] (Escherichia coli, ML35P), the MIC is 0.625 µM (≈ 0.299 µg/mL). For the same compound, the “effect on cytoplasmic membrane permeability, substance alone (in words)” value (“effect … substance alone (in words)” below) in [2] is “no substantial increase”.

For the compound `Cc1onc(-c2ccccc2)c1C(=O)N[C@@H]1C(=O)N2[C@@H]1SC(C)(C)[C@@H]2C(=O)O` [Oxacillin], the “Minimal FICI” value in series [3] (setting [13]) is listed as 0.25^*; in series [3] (setting [14]), 1.12; in series [9] (setting [13]), 1.12; in [9] (setting [14]), 1.12; in series [10] (setting [13]), 1.12; in series [10] (setting [14]), 0.75. Besides, the “Minimal FICI” value in series [11] (setting [13]), in series [11] (setting [14]), in series [12] (setting [13]) and in series [12] (setting [14]) was 1.12 each time. The MIC in series [4] was > 50 µM; in series [5], > 50 µM; in [6], > 50 µM; in [7], > 50 µM; in series [8], > 50 µM; in series [1] (Escherichia coli, ML35P) it was > 250 µM.

For the compound Polymyxin B, the MIC in [1] is 0.4 µM.

With “RFRLPFRRPPIRIHPPPFYPPFRRFL-NH2 (C-terminus assumed) [ChBac3.4]”, in [2] (¼ MIC + ¼ MIC rifampicin), the “development of membrane-damaging effect in combination with rifampicin (in words)” value is listed as “slight acceleration”. For the same compound, in series [2], the “effect … substance alone (in words)” value is “no substantial effect”.

With `CC[C@H](C)[C@H](NC(=O)[C@H](CCCCN)NC(=O)[C@H](CCC(=O)O)NC(=O)[C@H](CCCCN)NC(=O)[C@H](CO)NC(=O)[C@H](CCCCN)NC(=O)[C@H](CCCNC(=N)N)NC(=O)[C@H](Cc1ccccc1)NC(=O)[C@H](Cc1ccccc1)NC(=O)[C@H](CC(=O)O)NC(=O)CNC(=O)[C@H](CC(C)C)NC(=O)[C@@H](N)CC(C)C)C(=O)NCC(=O)N[C@@H](CCCCN)C(=O)N[C@@H](CCC(=O)O)C(=O)N[C@@H](Cc1ccccc1)C(=O)N[C@@H](CCCCN)C(=O)N[C@@H](CCCNC(=N)N)C(=O)N[C@H](C(=O)N[C@H](C(=O)N[C@@H](CCC(N)=O)C(=O)N[C@@H](CCCNC(=N)N)C(=O)N[C@H](C(=O)N[C@@H](CCCCN)C(=O)N[C@@H](CC(=O)O)C(=O)N[C@@H](Cc1ccccc1)C(=O)N[C@@H](CC(C)C)C(=O)N[C@@H](CCCNC(=N)N)C(=O)N[C@@H](CC(N)=O)C(=O)N[C@@H](CC(C)C)C(=O)N[C@H](C(=O)N1CCC[C@H]1C(=O)N[C@@H](CCCNC(=N)N)C(=O)N[C@H](C(=O)N[C@@H](CCC(=O)O)C(=O)N[C@@H](CO)C(=O)O)[C@@H](C)O)C(C)C)[C@@H](C)CC)C(C)C)[C@@H](C)CC` [LL-37], in series [2] (¼ MIC + ¼ MIC gentamicin), the “effect on cytoplasmic membrane permeability in presence of gentamicin vs peptide/protein alone (in words)” value is “developing rather quickly”. Also, in series [2], the “effect … substance alone (in words)” value is “quite slow enhance of the membrane permeability”.

Consider `CO[C@H]1/C=C/O[C@@]2(C)Oc3c(C)c(O)c4c(O)c(c(/C=N/N5CCN(C)CC5)c(O)c4c3C2=O)NC(=O)/C(C)=C\C=C\[C@H](C)[C@H](O)[C@@H](C)[C@@H](O)[C@@H](C)[C@H](OC(C)=O)[C@@H]1C` [Rifampicin], for which, in series [1] (Escherichia coli, ML35P), the MIC is 10 µM (≈ 8.23 µg/mL).

Consider `CC1COc2c(N3CCN(C)CC3)c(F)cc3c(=O)c(C(=O)O)cn1c23` (stereo not shown) [Ofloxacin], for which the “Minimal FICI” value in [3] (setting [13]) is reported as 0.125^*; in series [3] (setting [14]), 0.56; in series [9] (setting [13]), 0.75; in series [9] (setting [14]), 1.12; in [10] (setting [13]), 0.5^*; in [10] (setting [14]), 0.62. In addition, the “Minimal FICI” value in [11] (setting [13]) was 0.75; in [11] (setting [14]), 0.75; in [12] (setting [13]) it was 0.75; in [12] (setting [14]) it was 0.5. Also, the MIC in series [4] was > 50 µM; in [5], 25 µM; in [6], 0.25 µM; in series [7], > 50 µM; in [8], 50 µM; in [1] (Escherichia coli, ML35P), 0.125 µM (≈ 0.0452 µg/mL).

Values taken from article PMC6503114, “Application of Antimicrobial Peptides of the Innate Immune System in Combination With Conventional Antibiotics—A Novel Way to Combat Antibiotic Resistance?” (Frontiers in Cellular and Infection Microbiology, 2019).
